The values below come from patent US12390435B2, “Electrophiles and electrophile pro-drugs as RAD51 inhibitors” (University of Pittsburgh—Of the Commonwealth System of …, priority 2018, dated 2025).

Assay type in all cases: cell-based
Series [1] concerns MDA-MB-231 and MDA-MB-468 cells. The series can be described thus: MTT viability / cytotoxicity.
Series [2] shares this test system. The series can be described thus: GSH and GSSG LC-MS/MS. The note with it: 5 μM, 0 to 12 hr. The method, then: (§1) MCF-10A, MDA-MB-231, and MDA-MB-468 cells were seeded in 24-well plates at a density of 3×10^5 cells/well. […] At each time point, cell media was aspirated and washed 2 times with sterile PBS. Cells were then incubated with PBS containing 25 mM N-ethylmaleimide (NEM) for 15 min at 37° C. Derivatizing solution (50 μL of 15% MeOH, 40 mM HEPES, 50 mM NaCl, 1 mM EDTA, 2 μM [^13C2^15N]-GSH, 2 μM [^13C4^15N2]-GSSG, and 25 mM NEM) was added to each well and incubated for 15 min at room temperature. Next, 50 μL, of 10% (w/v) sulfosalicylic acid solution was immediately added to each well to stabilize GSH and GSSG. Supernatant was collected by centrifugation at 15,000 RPM for 10 min at 4° C. Samples were diluted 1:5 in 5% sulfosalicylic acid and 20 μL, was injected for HPLC-MS/MS analysis. Cell numbers at time 0 hr were quantitated by Hoechst 33258 DNA stain assay and used to normalized GSH or GSSG levels expressed as nmol/cells (×10^6).
(§2) Samples were applied to the column at 30% B and eluted with a linear increase in solvent B (30-100% in 9.7 min). The column was washed at 100% B for 3 min before returning to initial conditions for equilibration (2 min). […] Sample [GSH] and [GSSG] were determined from analyte:I.S. area ratios, and intracellular GSH and GSSG were normalized to cell number (10^6), with results expressed as nmol GSH or GSSG per 10^6 cells.

For a further series, the system named is MCF-10A cells. Briefly: GSH and GSSG LC-MS/MS. To be noted: 5 μM, 0 to 12 hr. The procedure: as §1, §2
Series [3] concerns RelA in MDA-MB-231 and MDA-MB-468 cells. The series can be described thus: RelA protein level and polyubiquitination. The method, then: Lysates were clarified by centrifugation at 14,000×g for 10 min. Protein lysates (1 mg) were incubated with anti-RelA antibody and Protein G/A conjugated agarose beads (EMD Millipore, Bedford, MA) at 4° C., overnight. Immunoprecipitation fraction were obtained by centrifugation at 14,000×g for 1 min at RT and washed with lysis buffer three times. The immunoprecipitated RelA was resolved by 8% SDSPAGE gel, and transferred to nitrocellulose membrane (Bio-Rad) for immunoblotting probed with an anti-ubiquitin antibody (Santa Cruz Biotechnology). The blot was then stripped and probed with an anti-RelA antibody to assess amounts of RelA protein pull-down.
Western blotting was performed. 20-60 μg of total lysates per lane were loaded on 7%, 10%, or 12% SDS-PAGE and transferred onto nitrocellulose or polyvinylidene difluoride membranes (Bio-Rad). The membranes were probed with primary antibodies against caspase-3, multi-drug resistance protein-1 (MRP1), poly [ADP ribose] polymerase-1 (PARP-1), ubiquitin, RelA; cyclin D1, p21, caspase-9, MRP4, IKKβ, pIKKβ, IκBα, or pIκBα (Cell Signaling); caspase-8 (R&D Systems). Samples were normalized to β-actin (Sigma-Aldrich) or GAPDH (Trevigen).

A further series relates to MDA-MB-468 cells. The series can be described thus: Matrigel cell invasion assay. To be noted: NO2-OA/NO2-SA 5 μM, JSH-23 10 μM, TNFα 20 ng/mL, 24 hr. The method, then:
Cells were then suspended in migration media and placed in the top well of invasion chambers (EMD Millipore). Chemoattractant (5% FBS) was placed in the lower chamber for 24 hr at 37° C. to attract invasive cells. Cells were then harvested and invasion rates were determined according to manufacturer's protocol. Three individual experiments were done, and statistical comparison among treatments was determined by one-way analysis of variance followed by Tukey post-test.

For the compound `CCCCCCCCC(=CCCCCCCCC(=O)O)[N+](=O)[O-]` [NO2-OA, 10-nitro-octadec-9-enoic acid], the “cell viability (MTT)” value in series [1] is given as “significantly reduced the viability”. In series [1] (5 μM, up to 24 hr, any cell line), the cytotoxicity entry was “No cytotoxicity was detectable”. Moreover, the results for the “GSH:GSSG ratio after treatment” value (in series [2]; with MCF-10A cells) were “rapidly decreased” and “maintained the GSH:GSSG ratio over the first 6 hr”, respectively. Further, the “polyubiquitination of RelA” value in series [3] (5 μM, 5 hr) is “promoted polyubiquitination of RelA”. The RelA protein abundance result in series [3] (5 μM, 24 hr) was “decreased the abundance of RelA”. The “RelA mRNA levels” value in series [3] (all three cell lines (MDA-MB-231, MDA-MB-468, MCF-10A)) is “not altered”. The TNFα-induced invasion result with MDA-MB-468 cells is “significantly inhibited”.
